Assay results: patent publication US20100298394A1, “ANTIFUNGAL AGENTS AS NEUROPROTECTANTS” (THE JOHNS HOPKINS UNIVERSITY, priority 2007, published 2010)

Key:
[1] = tested on: rat mixed hippocampal cultures; assay: 3-NP neurotoxicity (neuroprotection) assay, MTT endpoint; type: cell-based; details: for % Protection vs. 3-NP / Protection vs 3NP: 10 μM agent, 60 minutes incubation, 3 mM 3-NP, compared to 0.1% DMSO vehicle control; for protection from oxidative damage elicited by 3-NP (FIG. 4): increasing concentrations, 1 h prior to 3 mM 3-NP for 18 h; for protection from oxidative damage elicited by 3-NP (positive controls, FIG. 2): 10 μM, 1 hour pretreatment, 3 mM 3-NP for 18 hours
Method: For example, a cell viability assay can be utilized to detect and/or measure the ability of a compound disclosed herein to protect neuronal and/or glial cells. In some embodiments, mixed hippocampal cell cultures are prepared as described in, e.g., Haughey et al. (1999), J Neurochem, 73(4):1363-1374, and Haughey et al (2004), J Neurosci, 24(1):257-268. Subsequently, the cultures are pretreated for one hour in the presence of a candidate neuroprotective agent and then incubated with a cytotoxic agent for about 18 hours. Examples of cytotoxic agents include, but are not limited to, oxidative stressors (e.g., 3-nitropropionic acid (3-NP) or H2O2),.excitatory amino acids (e.g., kainate), or neurotoxic proteins (e.g., Hiv Tat, or Aβ peptides). […] The level of protection (“percent protection”) provided by the test compound at a given test concentration in vitro can be expressed as: […]
(§1) We evaluate the protective efficacy of a number of antifungal agents against many different neurotoxins, ranging from the chemotoxic 6-OHDA, NMDA, 3-nitropropionic acid (3-NP), and viral proteins such as Tat and gp120. Thus, we provide an in vitro neuroprotection assay using rat mixed hippocampal cultures, in which we evaluate the protective efficacy of neuroprotective compounds described herein. The oxidative stressor 3-NP is used to elicit toxicity in the rat hippocampal cultures to mimic the oxidative damage, reactive oxygen species production and ensuing neurodegeneration resulting from HIV infection. Another measure of neurotoxicity which results from HIV infection is evaluated by exposure of the hippocampal cultures to HIV-1 Tat (Li et al (2005), Neurotox Res, 8(1-2):119-134).
(§2) Rat mixed hippocamal neuronal cultures are generated from freshly dissected rat hippocampi (embryonic day 18) in neurobasal media containing 5% fetal bovine serum and 2% B27 supplement. The cells are plated into 96 well plates at a density of 4×10^5 cells/mL and routinely used on days 11-14 following culturing. Cell viability is assessed with MTT [3-(4,5-dimethylthiazol-2-yl)-2,5-diphenyltetrazolium bromide] assay. The MTT assay is based on the ability of a mitochondrial dehydrogenase enzyme from viable cells to cleave the tetrazolium rings of the pale yellow MTT and form dark blue formazan crystals. See Mosmann (1983), J Immunol Methods, 65(1-2):55-63. These crystals are largely impermeable to cell membranes, and thus accumulate within healthy cells. The resultant formazan precipitates are solubilized with DMSO and read on a multiwell scanning spectrophotometer (ELISA reader). The number of surviving cells is directly proportional to the level of the formazan product created.
Mixed hippocampal cultures are incubated with 3-NP (0.5-10 mM) for 18 hours in a 0.1% DMSO vehicle and then assessed for viability using an MTT assay.
Neuroprotection vs 3NP is measured as a percentage of neural and/or glial cell that are protected from 3NP induced cell death after incubation with the neuroprotective agent (10 μM) for 60 minutes when compared to a 0.1% DMSO vehicle control.
The neural and glial cells were preincubated with the neuroprotective compound for 1 hour followed by exposure to3 mM of the toxin for 18 hours.

[2] = tested on: rat mixed hippocampal cultures; assay: HIV-1 Tat neurotoxicity assay, MTT endpoint; type: cell-based; details: for protection of hippocampal cultures from HIV-Tat toxicity (FIG. 5): increasing concentrations, 1 hour preincubation, 500 nM Tat1-72 for 18 hours; for protection from HIV-1 Tat toxicity (positive controls, FIG. 3): 10 μM, 1 hour pretreatment, 500 nM Tat for 18 hours
Source text: as §1, §2
The assay system is validated using two neuroprotective agents, GPI 1046 and Resveratrol. […] Cultures are preincubated with GPI 1046 or Resveratrol for one hour prior to an 18 hour exposure to 3 mM 3-NP. […] The same neuroprotective compounds are evaluated for efficacy against HIV-1 Tat protein toxicity using the same 1 hour preincubation protocol.
The neural and glial cells were preincubated with the neuroprotective compound for 1 hour followed by exposure to 500 nM of Tat1-72 for 18 hours.

| SMILES | % Protection vs. 3-NP [1] [%] | Protection vs 3NP [1] [%] | other results |
| --- | --- | --- | --- |
| Clc1ccccc1C(c1ccccc1)(c1ccccc1)n1ccnc1 [CLOTRIMAZOLE, Clotrimazole] | 12.6 | 12.57 | protection from oxidative damage elicited by 3-NP (FIG. 4) [1]: protect hippocampal neurons from oxidative damage elicited by 3-NP; protection of hippocampal cultures from HIV-Tat toxicity (FIG. 5) [2]: concentration dependent protection |
| Clc1ccc(COC(Cn2ccnc2)c2ccc(Cl)cc2Cl)cc1 (stereo not shown) [ECONAZOLE NITRATE, Econazole Nitrate] | 141.2 | 141.18 | – |
| CCCCCCOc1ccccc1C(N)=O [EXALAMIDE] | – | 9.19 | – |
| Fc1ccc(C(c2ccccc2)(c2ccccc2F)n2ccnc2)cc1 (stereo not shown) [FLUTRIMAZOLE] | – | 46.85 | – |
| CCC(C)(C)C(=O)C(=O)N1CCC[C@H]1C(=O)OCCCc1cccnc1 [GPI 1046] | – | – | protection from oxidative damage elicited by 3-NP (positive controls, FIG. 2) [1]: significantly protected rat neurons from oxidative damage; protection from HIV-1 Tat toxicity (positive controls, FIG. 3) [2]: protected hippocampal neurons from Tat toxicity |
| CC(=O)N1CCN(c2ccc(OCC3COC(Cn4ccnc4)(c4ccc(Cl)cc4Cl)O3)cc2)CC1 (stereo not shown) [KETOCONAZOLE] | – | 20.93 | – |
| Clc1ccc(COC(Cn2ccnc2)c2ccc(Cl)cc2Cl)c(Cl)c1 (stereo not shown) [MICONAZOLE NITRATE, Miconazole Nitrate] | 81.6 | 81.61 | – |
| C[C@@H]1[C@H](O)[C@@H](C)/C=C/C=C/CC/C=C/C=C/C=C/C=C/C(O[C@H]2O[C@H](C)[C@@H](O)[C@H](N)[C@@H]2O)CC2O[C@](O)(CC(O)C(O)CCC(O)CC(O)CC(O)CC(=O)O[C@H]1C)CC(O)C2C(=O)O (stereo partly shown) [NYSTATIN] | – | 46.72 | – |
| COc1ccc(/C=C/c2cc(O)cc(O[C@@H]3O[C@H](CO)[C@@H](O)[C@H](O)[C@H]3O)c2)cc1O [RHAPONTIN] | – | 22.12 | – |
| Oc1ccc(C=Cc2cc(O)cc(O)c2)cc1 [Resveratrol] | – | – | protection from oxidative damage elicited by 3-NP (positive controls, FIG. 2) [1]: significantly protected rat neurons from oxidative damage; protection from HIV-1 Tat toxicity (positive controls, FIG. 3) [2]: protected hippocampal neurons from Tat toxicity |
| Clc1ccc(CSC(Cn2ccnc2)c2ccc(Cl)cc2Cl)cc1 (stereo not shown) [SULCONAZOLE NITRATE, Sulconazole Nitrate] | 18.21 | 18.21 | – |
| Cc1cccc(N(C)C(=S)Oc2ccc3ccccc3c2)c1 [TOLNAFTATE, Tolnaftate] | 66.8 | 66.83 | protection from oxidative damage elicited by 3-NP (FIG. 4) [1]: protect hippocampal neurons from oxidative damage elicited by 3-NP; protection of hippocampal cultures from HIV-Tat toxicity (FIG. 5) [2]: concentration dependent protection |
| CC(=O)OCC(COC(C)=O)OC(C)=O [TRIACETIN] | – | 45.14 | – |
| Clc1ccc(COC(Cn2ccnc2)c2ccc(Cl)cc2Cl)cc1 (stereo not shown) [econazole] | – | – | protection from oxidative damage elicited by 3-NP (FIG. 4) [1]: protect hippocampal neurons from oxidative damage elicited by 3-NP; protection of hippocampal cultures from HIV-Tat toxicity (FIG. 5) [2]: concentration dependent protection |
| Clc1ccc(COC(Cn2ccnc2)c2ccc(Cl)cc2Cl)c(Cl)c1 (stereo not shown) [miconazole] | – | – | protection from oxidative damage elicited by 3-NP (FIG. 4) [1]: protect hippocampal neurons from oxidative damage elicited by 3-NP; protection of hippocampal cultures from HIV-Tat toxicity (FIG. 5) [2]: concentration dependent protection |
